Source: paper PMC8490401, “Chemical proteomic profiling reveals protein interactors of the alarmones diadenosine triphosphate and tetraphosphate” (Nature Communications, 2021)
Each block holds one molecule with its values, some of them ahead of it.

Key:
[1] = target: T1, decapping scavenger protein (DcpS) (Homo sapiens, UniProt Q96C86); experiment: HPLC assay: Ap4A hydrolysed by purified DcpS and slows m7Gp3G cleavage; assay type: biochemical
T1 construct: His-tagged DcpS
T1 sequence (Q96C86 2-337): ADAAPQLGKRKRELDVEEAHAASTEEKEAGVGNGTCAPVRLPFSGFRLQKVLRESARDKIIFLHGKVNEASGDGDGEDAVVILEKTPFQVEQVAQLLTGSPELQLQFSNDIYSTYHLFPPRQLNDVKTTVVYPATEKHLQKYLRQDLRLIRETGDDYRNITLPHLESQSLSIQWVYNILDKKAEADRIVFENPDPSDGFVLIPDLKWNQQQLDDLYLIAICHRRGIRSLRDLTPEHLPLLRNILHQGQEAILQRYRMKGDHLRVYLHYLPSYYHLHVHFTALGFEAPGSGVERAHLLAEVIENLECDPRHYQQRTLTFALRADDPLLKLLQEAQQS

[2] = target: T1, decapping scavenger protein (DcpS); experiment: HPLC assay: Ap3A hydrolysed by purified DcpS and slows m7Gp3G cleavage; assay type: biochemical
[3] = target: T1, decapping scavenger protein (DcpS); experiment: HPLC cleavage assay with purified DcpS; assay type: biochemical
PGK1 = target: T2, PGK1 (Homo sapiens, UniProt P00558); experiment: fluorescence polarization, direct titration of purified protein; assay type: binding
T2 sequence (P00558 2-417): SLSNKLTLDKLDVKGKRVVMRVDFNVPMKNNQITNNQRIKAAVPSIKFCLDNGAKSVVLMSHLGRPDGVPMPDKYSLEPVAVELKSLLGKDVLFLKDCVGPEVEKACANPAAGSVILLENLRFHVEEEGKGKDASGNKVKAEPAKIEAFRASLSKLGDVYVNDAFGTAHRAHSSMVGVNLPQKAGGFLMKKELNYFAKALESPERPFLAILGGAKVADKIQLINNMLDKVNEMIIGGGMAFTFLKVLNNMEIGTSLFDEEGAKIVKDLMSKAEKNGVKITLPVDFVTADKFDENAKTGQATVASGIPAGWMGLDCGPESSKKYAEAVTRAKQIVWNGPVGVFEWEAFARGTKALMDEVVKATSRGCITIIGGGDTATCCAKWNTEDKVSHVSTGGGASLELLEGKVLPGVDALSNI

LDHA = LDHA (Homo sapiens, UniProt P00338); experiment: as above; assay type: binding

SMILES: Nc1ncnc2c1ncn2[C@@H]1O[C@H](COP(=O)(O)OP(=O)(O)OP(=O)(O)OP(=O)(O)OC[C@H]2O[C@@H](n3cnc4c(N)ncnc43)[C@H](O)[C@@H]2O)[C@@H](O)[C@H]1O [Ap4A, diadenosine tetraphosphate]
HPLC assay: Ap4A hydrolysed by purified DcpS and slows m7Gp3G cleavage [1]: demonstrating that both Ap3A and Ap4A can be cleaved by DcpS

SMILES: Nc1ncnc2c1ncn2[C@@H]1O[C@H](COP(=O)(O)OP(=O)(O)OP(=O)(O)OC[C@H]2O[C@@H](n3cnc4c(N)ncnc43)[C@H](O)[C@@H]2O)[C@@H](O)[C@H]1O [Ap3A, diadenosine triphosphate]
HPLC assay: Ap3A hydrolysed by purified DcpS and slows m7Gp3G cleavage [2]: demonstrating that both Ap3A and Ap4A can be cleaved by DcpS

SMILES: C[n+]1cn([C@@H]2O[C@H](COP(=O)(O)OP(=O)([O-])OP(=O)(O)OC[C@H]3O[C@@H](n4cnc5c(=O)[nH]c(N)nc54)[C@H](O)[C@@H]3O)[C@@H](O)[C@H]2O)c2nc(N)[nH]c(=O)c21 [m^7Gp3G]
HPLC cleavage assay with purified DcpS [3]: HPLC profiles for the hydrolysis of m^7Gp3G (peak c) catalyzed by DcpS

Kd (PGK1): 37.4 ± 1.62 µM
Kd (LDHA): 35.3 ± 0.69 µM
SMILES: Nc1ncnc2c1ncn2[C@@H]1O[C@H](COP(=O)(O)OP(=O)(O)OP(=O)(O)OC[C@H]2O[C@@H](n3cnc4c(N)nc(C#CCCCNC(=O)c5ccc6c(c5)C(=O)OC65c6ccc(O)cc6Oc6cc(O)ccc65)nc43)[C@H](O)[C@@H]2O)[C@@H](O)[C@H]1O [F-Ap3A]
